Data on three molecules can be found in US12723063B2, “GIPR-agonist compounds” (Eli Lilly and Company, priority 2019, dated 2026).

Assay in all cases: cAMP functional assay (HTRF) in HEK293 cells in presence of 0.1% casein
Type in all cases: cell-based
On the technique in general: Time-resolved FRET reads energy transfer from a long-lived donor to a nearby acceptor.

In assay [1] the target is T1, human glucagon receptor (GcgR) (Homo sapiens, UniProt P47871).
T1 construct: expressed in transfected cells; host or cells: HEK293
To be noted: HEK293 cells expressing human GcgR, geometric mean, read-out: hGcgR cAMP Rel EC50 nM (SEM, n). On the procedure: (§1) Each receptor over-expressing cell line (20 μl) is treated with the test peptide in DMEM (Gibco Cat #31053) supplemented with 0.1% Casein (Sigma Cat #C4765), 250 μM IBMX, 1× GlutaMAX™ (Gibco Cat #35050), and 20 mM HEPES (HyClone Cat #SH30237.01) in a 20 μl assay volume. After incubating for 60 minutes at room temperature, the resulting increase in intracellular CAMP is quantitatively determined using the CisBio CAMP Dynamic 2 HTRF Assay Kit (62AM4PEJ). The Lysis buffer containing cAMP-d2 conjugate (20 μl) and the antibody anti-cAMP-Eu3+-Cryptate (20 μl) are then added to determine the cAMP level. After incubating 60 minutes at room temperature, HTRF signal is detected with an Envision 2104 plate reader (PerkinElmer). Fluorescent emission at 620 nm and at 665 nm is measured and the ratio between 620 nm and at 665 nm is calculated and then are converted to nM cAMP per well using a cAMP standard curve. Dose response curves of compounds are plotted as the percentage of stimulation normalized to minimum (buffer only) and maximum (maximum concentration of each control ligand) values and analyzed using a four parameter non-linear regression fit with a variable slope (Genedata Screener 13). EC50 is the concentration of compound causing half-maximal simulation in a dose response curve. A relative EC50 value is derived by non-linear regression analysis using the percent maximal response vs, the concentration of peptide added, fitted to a four-parameter logistic equation.
(§2) Intracellular cAMP levels are determined by extrapolation using a standard curve. Dose response curves of compounds are plotted as the percentage of stimulation normalized to minimum (buffer only) and maximum (maximum concentration of each control ligand) values and analyzed using a four-parameter non-linear regression fit with a variable slope (Genedata Screener 13). EC50 is the concentration of compound causing half-maximal simulation in a dose response curve. Each relative EC50 value for the geometric mean calculation is determined from a curve fitting.
(§3) Concentration response curves of compounds are plotted as the percentage of stimulation normalized to minimum (buffer only) and maximum (maximum concentration of each control ligand) values and analyzed using a four-parameter non-linear regression fit with a variable slope (Genedata Screener 13). EC50 is the concentration of compound causing half-maximal simulation in a dose response curve. […] The standard error of the mean is reported:
(§4) [formula] • The log transform accounts for the EC50 values falling on a multiplicative, rather than an arithmetic scale.
(§5) For illustration, as shown by Example 1, the peptide is tested in 8 runs of the hGIPR CAMP assay. […] Accordingly, each Example will use the geometric mean of those values to normalize the Example assay runs.

Assay [2] addresses T2, human GLP-1 receptor (GLP-1R) (Homo sapiens, UniProt P43220).
T2 construct: expressed in transfected cells; host or cells: HEK293
To be noted: HEK293 cells expressing human GLP-1R, geometric mean, read-out: hGLP1R cAMP Rel EC50 nM (SEM, n). On the procedure:
as §1, §2, §3, §4, §5

The target of assay [3] is T3, human glucose-dependent insulinotropic peptide receptor (GIPR) (Homo sapiens, UniProt P48546).
T3 construct: expressed in transfected cells; host or cells: HEK293
T3 sequence (P48546 22-466): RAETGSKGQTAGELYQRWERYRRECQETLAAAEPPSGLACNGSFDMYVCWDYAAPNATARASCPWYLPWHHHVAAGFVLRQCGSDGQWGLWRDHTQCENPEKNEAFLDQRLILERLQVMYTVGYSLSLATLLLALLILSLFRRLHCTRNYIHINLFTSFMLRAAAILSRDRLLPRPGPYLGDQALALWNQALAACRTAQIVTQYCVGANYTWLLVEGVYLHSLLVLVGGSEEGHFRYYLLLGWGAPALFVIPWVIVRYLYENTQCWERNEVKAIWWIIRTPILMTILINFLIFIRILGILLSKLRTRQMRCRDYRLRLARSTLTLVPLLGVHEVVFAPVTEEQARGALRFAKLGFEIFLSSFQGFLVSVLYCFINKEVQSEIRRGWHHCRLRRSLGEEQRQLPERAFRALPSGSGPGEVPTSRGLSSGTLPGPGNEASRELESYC
To be noted: HEK293 cells expressing human GIPR, geometric mean, read-out: hGIPR cAMP Rel EC50 nM (SEM, n). Here is the method: as §1, §2, §3, §4, §5

*1 amine or outer side, *2 acyl side, *3 side chain or, on linkers, in order; H or OH if unused. Where a SMILES comes first, the peptide text is derived from it. Side-chain parts run from the residue outwards. [ ]: non-standard residue; d: D form. The star is where a group is joined. C20 diacid = O=C(O)CCCCCCCCCCCCCCCCCCC(=O)*; γGlu = O=C(O)[C@H](CCC(=O)[*:2])N[*:1]; AEEA = NCCOCCOCC(=O)O; Aib = CC(C)(N)C(=O)O A value given as a limit tells only on which side of the number the result lay.

One may read the EC50 as the concentration at which the effect is half-maximal.

T1 sequence (P47871 26-477): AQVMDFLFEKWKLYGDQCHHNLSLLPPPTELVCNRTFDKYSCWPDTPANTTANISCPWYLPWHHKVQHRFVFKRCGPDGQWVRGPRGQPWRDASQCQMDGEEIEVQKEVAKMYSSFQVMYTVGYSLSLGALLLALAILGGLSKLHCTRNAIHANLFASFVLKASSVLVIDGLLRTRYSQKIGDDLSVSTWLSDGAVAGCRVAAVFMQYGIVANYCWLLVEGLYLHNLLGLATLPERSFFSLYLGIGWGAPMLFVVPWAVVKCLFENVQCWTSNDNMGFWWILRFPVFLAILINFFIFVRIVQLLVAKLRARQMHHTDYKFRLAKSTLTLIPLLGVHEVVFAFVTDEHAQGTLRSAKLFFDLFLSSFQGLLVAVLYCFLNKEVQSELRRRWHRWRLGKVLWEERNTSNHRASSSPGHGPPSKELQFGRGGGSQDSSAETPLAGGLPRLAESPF
T2 sequence (P43220 24-463): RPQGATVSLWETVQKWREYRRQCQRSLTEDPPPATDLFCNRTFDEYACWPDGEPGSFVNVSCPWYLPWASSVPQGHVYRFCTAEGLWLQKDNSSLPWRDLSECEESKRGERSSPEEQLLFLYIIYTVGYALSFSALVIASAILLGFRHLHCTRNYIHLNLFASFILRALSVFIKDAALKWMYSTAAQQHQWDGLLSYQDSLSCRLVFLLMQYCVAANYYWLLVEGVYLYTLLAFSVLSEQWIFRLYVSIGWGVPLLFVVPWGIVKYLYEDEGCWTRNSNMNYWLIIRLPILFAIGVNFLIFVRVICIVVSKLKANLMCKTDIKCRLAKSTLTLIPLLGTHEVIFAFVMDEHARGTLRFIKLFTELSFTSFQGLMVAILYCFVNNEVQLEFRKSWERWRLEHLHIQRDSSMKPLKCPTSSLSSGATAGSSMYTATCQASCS

Regarding `CC[C@H](C)[C@H](NC(=O)[C@H](CCCN)NC(=O)[C@H](CC(=O)O)NC(=O)[C@H](CC(C)C)NC(=O)[C@](C)(CC(C)C)NC(=O)[C@@H](NC(=O)[C@H](CO)NC(=O)[C@H](Cc1ccc(O)cc1)NC(=O)[C@H](CC(=O)O)NC(=O)[C@H](CO)NC(=O)[C@@H](NC(=O)[C@H](Cc1ccccc1)NC(=O)[C@@H](NC(=O)CNC(=O)[C@H](CCC(=O)O)NC(=O)C(C)(C)NC(=O)[C@@H](N)Cc1ccc(O)cc1)[C@@H](C)O)[C@@H](C)CC)[C@@H](C)CC)C(=O)N[C@@H](Cc1c[nH]cn1)C(=O)N[C@@H](CCC(N)=O)C(=O)NC(C)(C)C(=O)N[C@@H](CC(=O)O)C(=O)N[C@@H](Cc1ccccc1)C(=O)N[C@H](C(=O)N[C@@H](CCC(=O)O)C(=O)N[C@@H](Cc1ccc(O)cc1)C(=O)N[C@@H](CCCCNC(=O)COCCOCCNC(=O)COCCOCCNC(=O)CC[C@H](NC(=O)CCCCCCCCCCCCCCCCCCC(=O)O)C(=O)O)C(=O)N[C@@H](CC(C)C)C(=O)N[C@@H](CCC(=O)O)C(=O)NCC(=O)NCC(=O)N1CCC[C@H]1C(=O)N[C@@H](CO)C(=O)N[C@@H](CO)C(=O)NCC(=O)N[C@@H](C)C(=O)N1CCC[C@H]1C(=O)N1CCC[C@H]1C(=O)N1CCC[C@H]1C(=O)N[C@@H](CO)C(N)=O)C(C)C` [Example 6], the EC50 is over 5000 nM in assay [1], over 5000 nM in assay [2] and 0.0176 nM in assay [3].
Take `CC[C@H](C)[C@H](NC(=O)[C@H](CCCN)NC(=O)[C@H](CC(=O)O)NC(=O)[C@H](CC(C)C)NC(=O)[C@](C)(CC(C)C)NC(=O)[C@@H](NC(=O)[C@H](CO)NC(=O)[C@H](Cc1ccc(O)cc1)NC(=O)[C@H](CC(=O)O)NC(=O)[C@H](CO)NC(=O)[C@@H](NC(=O)[C@H](Cc1ccccc1)NC(=O)[C@@H](NC(=O)CNC(=O)[C@H](CCC(=O)O)NC(=O)C(C)(C)NC(=O)[C@@H](N)Cc1ccc(O)cc1)[C@@H](C)O)[C@@H](C)CC)[C@@H](C)CC)C(=O)N[C@@H](Cc1c[nH]cn1)C(=O)N[C@@H](CCC(N)=O)C(=O)NC(C)(C)C(=O)N[C@@H](CCC(=O)O)C(=O)N[C@@H](Cc1ccccc1)C(=O)N[C@H](C(=O)N[C@H](CCC(=O)O)C(=O)N[C@@H](Cc1ccc(O)cc1)C(=O)N[C@@H](CCCCNC(=O)COCCOCCNC(=O)COCCOCCNC(=O)CC[C@H](NC(=O)CCCCCCCCCCCCCCCCC(=O)O)C(=O)O)C(=O)N[C@@H](CC(C)C)C(=O)N[C@@H](CCC(=O)O)C(=O)NCC(=O)NCC(=O)N1CCC[C@H]1C(=O)N[C@@H](CO)C(=O)N[C@@H](CO)C(=O)NCC(=O)N[C@@H](C)C(=O)N1CCC[C@H]1C(=O)N1CCC[C@H]1C(=O)N1CCC[C@H]1C(=O)N[C@@H](CO)C(N)=O)C(C)C` [Example 7]: the results for the EC50 in assay [1], in assay [2] and in assay [3] were over 5000 nM, over 5000 nM and 0.0219 nM, respectively.
For the molecule `CC[C@H](C)[C@H](NC(=O)[C@H](CO)NC(=O)[C@H](Cc1ccc(O)cc1)NC(=O)[C@H](CC(=O)O)NC(=O)[C@H](CO)NC(=O)[C@@H](NC(=O)[C@H](Cc1ccccc1)NC(=O)[C@@H](NC(=O)CNC(=O)[C@H](CCC(=O)O)NC(=O)C(C)(C)NC(=O)[C@@H](N)Cc1ccc(O)cc1)[C@@H](C)O)[C@@H](C)CC)C(=O)N[C@@H](CC(C)C)C(=O)N[C@@H](CC(C)C)C(=O)N[C@@H](CC(=O)O)C(=O)N[C@@H](CCCCN)C(=O)N[C@@H](CCCCNC(=O)COCCOCCNC(=O)COCCOCCNC(=O)CC[C@H](NC(=O)CCCCCCCCCCCCCCCCCCC(=O)O)C(=O)O)C(=O)N[C@@H](C)C(=O)N[C@@H](CCC(N)=O)C(=O)NC(C)(C)C(=O)N[C@@H](CC(=O)O)C(=O)N[C@@H](Cc1ccccc1)C(=O)N[C@H](C(=O)N[C@@H](CC(N)=O)C(=O)N[C@@H](Cc1c[nH]c2ccccc12)C(=O)N[C@@H](CC(C)C)C(=O)N[C@@H](CC(C)C)C(=O)N[C@@H](C)C(=O)N[C@@H](CCC(N)=O)C(=O)NCC(=O)N1CCC[C@H]1C(=O)N[C@@H](CO)C(=O)N[C@@H](CO)C(=O)NCC(=O)N[C@@H](C)C(=O)N1CCC[C@H]1C(=O)N1CCC[C@H]1C(=O)N1CCC[C@H]1C(=O)N[C@@H](CO)C(N)=O)C(C)C` [Example 8] (H-Y[Aib]EGTFISDYSILLDKK([AEEA-AEEA-γGlu-C20 diacid])AQ[Aib]DFVNWLLAQGPSSGAPPPS-NH2), the EC50 in assay [1] was 295 nM; in assay [2], over 5000 nM; in assay [3], 0.0268 nM.
